Legend:
[1] = compared with EGCG; cited from earlier work
[2] = system: BMMC (mouse bone marrow-derived mast cells); experiment: Histamine release inhibitory activity in mouse mast cells (IgE-sensitized BMMC, DNP-HSA induced degranulation); format: cell-based; conditions: 12.5 and 25 μg/mL test sample, 10 min incubation, DNP-HSA antigen 20 min; histamine in supernatant relative to control (distilled water); FIG. 2; compared with epigallocatechin-3-O-gallate and epigallocatechin-3-O-(3-O-methyl)gallate
Method: FIG. 2 is a graph showing the histamine release inhibitory activity in mouse mast cells. In FIG. 2, numeral 1 denotes 12.5 μg/mL of epigallocatechin-3-O-gallate; numeral 2 denotes 25 μg/mL of epigallocatechin-3-O-gallate; numeral 3 denotes 12.5 μg/mL of epigallocatechin-3-O-(3-O-methyl)gallate: numeral 4 denotes 25 μg/mL of epigallocatechin-3-O-(3-O-methyl)gallate; numeral 5 denotes 12.5 μg/mL of epi(3-O-methyl)gallocatechin-3-O-(3,5-O-dimethyl)gallate; and numeral 6 denotes 25 μg/mL of epi(3-O-methyl)gallocatechin-3-O-(3,5-O-dimethyl)gallate.
The effect of epi(3-O-methyl)gallocatechin-3-O-(3,5-O-dimethyl)gallate was determined based on the histamine release inhibitory activity in mouse mast cells. Epigallocatechin-3-O-gallate and epigallocatechin-3-O-(3-O-methyl)gallate known to have stronger antiallergic activity than epigallocatechin-3-O-gallate were used as comparison substances. […] Then, DNP-HSA (antigen) was added thereto to induce degranulation (20 minutes), and the amount of histamine in the supernatant was measured by liquid chromatography. The antiallergic activity was evaluated based on the relative value with respect to the value for the control (distilled water). […]

Row | Molecule | antiallergic activity [1] | histamine release inhibitory activity [2]
1 | COc1c(O)cc(C(=O)O[C@@H]2Cc3c(O)cc(O)cc3O[C@@H]2c2cc(O)c(O)c(O)c2)cc1O [epigallocatechin-3-O-(4-O-methyl)gallate] | stronger antiallergic activity than EGCG | –
2 | COc1cc([C@H]2Oc3cc(O)cc(O)c3C[C@H]2OC(=O)c2cc(OC)c(O)c(OC)c2)cc(O)c1O [epi(3-O-methyl)gallocatechin-3-O-(3,5-O-dimethyl)gallate] | – | stronger than those of the comparison substances
3 | epigallocatechin-3-O-(3-O-methyl)gallate | stronger antiallergic activity than EGCG | –

From patent US20100324312A1, “NOVEL METHYLATED CATECHIN AND COMPOSITION CONTAINING THE SAME” (INCORPORATED ADMINSTRATIVE AGENCY NATIONAL AGRICULTURE AND …, priority 2007, published 2010)
